Laboratory results reported in paper PMC6891555, “Thuwalallenes A–E and Thuwalenynes A–C: New C15 Acetogenins with Anti-Inflammatory Activity from a Saudi Arabian Red Sea Laurencia sp” (Marine Drugs, 2019).
Entries after “also recorded” stand apart in the source; their conditions may differ.

Assays:
[1] = test system: NO production in LPS-treated RAW 264.7 cells; assay: Inhibition of NO production (Griess reaction) in LPS-treated RAW 264.7 macrophages; assay type: cell-based, mouse; conditions: for IC50: Mus musculus, RAW264.7, LPS (100 ng/mL, 48 h)-treated RAW 264.7 cells, 1 h pre-treatment, Griess reaction, vs vehicle Carbowax 400; for anti-inflammatory activity (inhibition of NO production), in words: TLR4 (LPS) stimulated macrophages
Protocol: (§1) The IC50 values for the inhibition of NO production were determined in LPS-treated RAW 264.7 cells in comparison to cells treated with the vehicle (Carbowax 400) only (Table 3, Figure S1). To verify that the anti-inflammatory activity observed was not due to cytotoxic effect, the potential cytotoxicity of 1–6, 8, 10 and 11 was evaluated using the MTT assay following 24, 48 and 72 h of treatment in RAW 264.7 macrophages (Table 3, Figure S2).
(§2) Mouse macrophage cell line RAW 264.7 was cultured in DMEM medium (cat. # 21885-025, Gibco, Thermo Fisher Scientific, Waltham, MA, USA) supplemented with 10% heat inactivated fetal bovine serum (cat. # 10270-106, Gibco, Thermo Fisher Scientific, Waltham, MA, USA) and 1% penicillin-streptomycin (cat. # 15070-063, Gibco, Thermo Fisher Scientific, Waltham, MA, USA). Cells were cultured in 37 °C and 5% CO2. Each compound was diluted in Carbowax^TM 400 + 10% ethanol (cat. # 1.00983, Merck, Darmstadt, Germany), used also as control solvent. Final concentration in culture was 0.1% v/v carbowax and 0.01% v/v ethanol. RAW 264.7 macrophages were activated using 100 ng/mL lipopolysaccharide (LPS) (L2630, Merck, Darmstadt, Germany). In IC50 determination experiments, macrophages were pre-treated for 1 h with the respective compound prior to LPS stimulation.
30 × 10^4 RAW 264.7 mouse macrophages were plated in 24-well plates over-night with 0.5 mL complete medium. Cells were pretreated for 1 h with the respected compound concentration and then stimulated with 100 ng/mL LPS (L2630, Merck, Darmstadt, Germany) for 48 h. The amount of nitrite, an oxidative product of NO, was measured in culture supernatant of each sample using the Griess reaction. 100 μL of supernatant was mixed with 100 μL of sulfanilamide solution (1% sulfanilamide in 5% H3PO4) and incubated for 5 min at room temperature. Then, 100 μL of NED solution (0.1% N-1-napthylethylenediamine dihydrochlorite in H2O) was added and the absorbance was measured in an automated microplate reader (Infinite 200 PRO, Tecan, Männedorf, Switzerland) at 540 nm. Nitrite concentration was calculated using a sodium nitrite standard curve. All incubations were performed in the dark.

[2] = Cytotoxicity by MTT assay in RAW 264.7 macrophages; assay type: cell-based, mouse; conditions: mouse, 72 h of treatment
Protocol: as §1, §2
(§3) 3.5 × 10^3 RAW 264.7 mouse macrophages were seeded in 96-well plate and cultured over night. Cells were subsequently treated with the respective compound concentration and incubated for 24, 48 and 72 h. Number of cells was measured prior to treatment and used as normalisation control. Thiazolyl Blue Tetrazolium Bromide (MTT) (A2231.001, Applichem GmbH, Darmstadt, Germany) was added to the cells in a final concentration of 0.5 mg/mL and then cells were incubated at 37 °C and 5% CO2 for 4 h. The supernatant was discarded and cells were lysed with 2-propanol (33539, Honeywell, Charlotte, NC, USA) with 0.4% HCl (30721, Merck, Darmstadt, Germany). The absorbance of each sample was measured in an automated microplate reader (Infinite 200 PRO, Tecan, Männedorf, Switzerland) at 600 nm. The average OD of each treated sample was normalized to the OD of the control sample and statistical analysis was performed using Graphpad Prism 7.0 (GraphPad Software, San Diego, CA, USA).

RAW 264.7 macrophages = assay: Cytotoxicity by MTT assay in RAW 264.7 macrophages; assay type: cell-based, mouse; conditions: for concentration above which cytotoxicity was observed: 72 h following treatment
Protocol: as §1, §2, §3

[3] = Stability of isolated metabolites (observation); assay type: physicochemical; conditions: reason why bioactivity was not evaluated

| Compound | IC50 [1] | IC50 at 72 h [2] | concentration above which cytotoxicity was observed (RAW 264.7 macrophages) | anti-inflammatory activity (inhibition of NO production), in words [1] | cytotoxicity, in words (RAW 264.7 macrophages) | stability of the metabolite, in words [3] | IC50 [2] | concentration above which significant cytotoxicity was observed (RAW 264.7 macrophages) |
| --- | --- | --- | --- | --- | --- | --- | --- | --- |
| CC[C@@H]1O[C@@H]2C/C=C\C[C@H](C=C=CBr)O[C@@H]2C[C@H]1Br (relative stereo) [Compound 3, Thuwalallene C] | 4.18 ± 0.48 µM | > 15.6 µM | higher than 15.62 μM | – | – | – | – | – |
| CCC1OC2CC3OC3CC(C=C=CBr)OC2CC1Br (centres unmarked) [Compound 1, Thuwalallene A] | 26 ± 3.73 µM | > 15.6 µM | higher than 15.62 μM | – | – | – | – | – |
| CCC1OC2CC(C(O)CC(Cl)C=C=CBr)OC2CC1Br (centres unmarked) [Compound 5, Thuwalallene D] | 12.4 ± 1.04 µM | > 15.6 µM | higher than 15.62 μM | – | – | – | – | – |
| CCC(Br)C1CC2OC(C=C=CBr)CC=CCC2O1 (centres unmarked) [Compound 8, Thuwalallene E] | 3.98 ± 0.6 µM | > 7.81 µM | ≥ 7.81 µM | – | – | – | – | – |
| C#C/C=C\C[C@@H]1O[C@@H]2C[C@@H](Br)[C@H](CC)O[C@@H]2C[C@@H]1Br (relative stereo) [Compound 4, Thuwalenyne A] | > 62.5 µM | > 62.5 µM | – | did not exhibit any activity; also recorded: did not exhibit anti-inflammatory activity | did not exhibit anti-inflammatory activity or cytotoxicity | – | – | – |
| C#C/C=C\CC(Br)[C@H]1C[C@H]2O[C@@H](CC)[C@H](Br)C[C@H]2O1 (relative stereo) [Compound 6, Thuwalenyne B] | 37.4 ± 2.51 µM | > 15.6 µM | higher than 15.62 μM | – | – | – | – | – |
| C#C/C=C\C/C=C\C[C@H]1O[C@@H](CC)[C@H](Br)C[C@H]1O (relative stereo) [Compound 7, Thuwalenyne C] | – | – | – | – | – | proven to be unstable | – | – |
| CC(=O)OC(C)(C)C1CCC(C)(C(O)CCC(C)(O)C2CCC3OC(C4(C)CCC(Br)C(C)(C)O4)CCC3(C)O2)O1 (centres unmarked) [Compound 11, 23-acetylthyrsiferol] | 0.00263 µM | – | – | IC50 values in the low nM scale | without significant cytotoxicity | – | > 0.01 µM | above 10 nM |
| CC(C)(O)[C@H]1CC[C@](C)([C@@H](O)CC[C@](C)(O)[C@H]2CC[C@H]3O[C@@H]([C@]4(C)CC[C@@H](Br)C(C)(C)O4)CC[C@]3(C)O2)O1 [Compound 10, thyrsiferol] | – | > 0.1 µM | – | IC50 values in the low nM scale | without significant cytotoxicity | – | – | above 100 nM |
| CC[C@@H]1O[C@@H]2C[C@@H]3O[C@@H]3C[C@H](C=C=CBr)O[C@@H]2C[C@H]1Br (relative stereo) [Compound 2, Thuwalallene B] | 13.2 ± 0.57 µM | > 31.2 µM | > 31.25 µM | – | – | – | – | – |
